The values below come from patent publication US20210282399A1, “FUNGICIDAL COMPOSITION” (priority 2018, published 2021).

Values joined by “and” are separate entries in the source; they are usually repeats but may differ in a detail not shown here. Equal entries are not always repeated. Bounds are passed on as bounds.

Assay [1] relates to Phakopsora pachyrhizi. Description: Field fungicide tests for Asian soybean rust on soybean, Brazil. Format: in vivo. The note with it: soybean field plots, three foliar applications; fenpropidin 75-300 g a.i./ha; FIGS. 1 and 2. As to the method:
The experiments for fungicide tests for Asian soybean rust (Phakopsora pachyrhizi) were carried out at Experimental Stations in different regions of Brazil. Each plot consisted of at least 15.0 m^2 (3.0 m×5.0 m). The experimental design was a randomized block design with four replicates, using soybean varieties adapted to each region. Three applications of foliar treatments were carried out at 10 to 15 day intervals, depending on the soybean rust pressure at each site. The applications were made with backpack sprayer pressurized with CO^2 set to apply 150 L. ha-1 of spray volume and 0.460 L/min per nozzle. […] The applications of the treatments were performed when the soybean was in stages 60 (First flowers opened (sporadically in population), 72 (About 20% of pods have reached final length (15-20 mm)) and 79 (Approx. pods have reached final length (15-20 mm), seeds filling the cavity of the majority of pods) of the BBCH international scale, respectively. The results were evaluated prior to the application of the treatments, and at 7, 14 and 21, 28 and 35 days after the first application through the visual evaluation of the percentage of disease severity per plot. The harvest was evaluated at a minimum of 5.0 m^2 per plot, and the data were transformed into kg·ha-1.

The test system of assay [2] is Phakopsora pachyrhizi. As to the kind of experiment: Flow cytometric assay of fungicide efficacy on Phakopsora pachyrhizi urediniospores (healthy vs dead spores, metabolic activity); Wadley and Colby evaluation. Format: cell-based. The settings on record: for EC50 (Mean) / EC50: based on perturbation of the metabolic activity. From the text: in which E represents the expected effect, e.g. percentage of pest control, for the combination of the three active ingredient at defined doses (for example equal to x, y and z respectively), X is the effect, e.g. percentage of pest control, observed for compound (I) at a defined dose (equal to x), Y is the effect, e.g. percentage of pest control, observed for compound (II) at a defined dose (equal to y), Z is the effect, e.g. percentage of pest control, observed for compound (III) at a defined dose (equal to z). When the effect, e.g. percentage of pest control, observed for the combination is greater than the expected effect, there is a synergistic effect. The ratio of observed action (Eobs) and expected action (Eexp), i.e. Eobs/Eexp expresses the factor of interaction level (R) which may be interpreted in accordance with Table 1a below.
In the Wadley method, synergistic activity is determined from dose response curves. With this method, the efficacy of the active ingredient (“a.i.”) is determined by comparing the degree of fungal attack on treated plants with that on untreated, similarly inoculated and incubated check plants. Each a.i. is generally tested at multiple. (e.g., 6) concentrations, and dose response curves are generated. The dose response curves are used to establish the EC50 (i.e., the effective concentration of a.i. providing 50% disease control) of the individual compounds as well as of the combinations (EC50Observed). The experimentally found values of the mixture at a given weight ratio are compared with the values that would have been found were only a complementary efficacy of the components was present as follows:
ECtheo=(a+b)/[(a/ECA)+(b/ECB)]
ECtheo=(a+b+c)/[(a/ECA)+(b/ECB+(c/ECC)]
The ratio EC50 (A+B)Theo/EC50(A+B)observed expresses the factor of interaction level (R) which may be interpreted in accordance with Table 1b below.
Soybean rust, caused by Phakopsora pachyrhizi, is one of the most important foliar diseases of soybean worldwide. Seed of soybean were sown in pots in a loam-vermiculite soil mix and placed inside a growth chamber maintained at 18° C./26° C. night/day and 60 to 70% RH with 16 h of light for 3 weeks.
First leaves were harvested and placed in Petri dishes on 1% water agar. A spore suspension (1×10^5 spores/ml of water) were prepared from infected leaf samples and was sprayed on leaf pieces using an atomizer attached to an air compressor. Petri dishes containing leaf pieces were incubated inside a growth chamber maintained at 18° C./26° C. night/day and 60 to 70% RH with 16 h of light during 2-3 weeks. Urediniospores (1×10^5 spores/ml of water) were harvested from infected leaf samples and equal volumes of spore suspension and fungicide diluted in water were mixed in 96 well plate. Spores are stained by two fluorescent dyes, one which stained dead spores and a one for which intensity of staining is directly correlated to metabolic activity.
Flow cytometric analyses were performed on a CyFlow Cube 8 equipped with an autoloading station (Sysmex Partec GmbH, Gorlittz, Germany). The fluorescences were collected for 2000 to 3000 spores per well and were used to discriminate: (i) healthy spores and (ii) dead spores. The fungicide efficacies were then calculated from the percentage of healthy spores in control condition and in treated condition.
The EC50 is based the perturbation of the metabolic activity.
In general terms: In flow cytometry, cells or beads pass a laser one at a time.

Take `CC(Cc1ccc(C(C)(C)C)cc1)CN1CCCCC1` (racemic) [Technical Fenpropidin, (±)-1-[3-[4-(1,1-dimethylethyl)phenyl]-2-methylpropyl]piperidine]: in the assay on Phakopsora pachyrhizi [1], the “effectiveness against Phakopsora pachyrhizi” value is “effective”. Also, the figures for the Efficacy % with Phakopsora pachyrhizi [2] (Fenpropidin dose 0.002304 ppm) and in the assay with Phakopsora pachyrhizi [2] (Fenpropidin dose 0.01152 ppm) were 10.17% and 18.55%, respectively. In addition, in the assay on Phakopsora pachyrhizi [2] (mean of Exp 1-3), the “EC50 (Mean)” value is reported as over 7.2 ppm. Moreover, the EC50 in the assay with Phakopsora pachyrhizi [2] (single experiments Exp 1-3) is recorded as over 7.2 ppm. Moreover, the “% of efficiency, Mean” value is 15.65% in the assay on Phakopsora pachyrhizi [2] (dose 0.0004608 ppm, mean of Exp 1-3); 10.17% in the assay with Phakopsora pachyrhizi [2] (dose 0.002304 ppm, mean of Exp 1-3); 18.55% with Phakopsora pachyrhizi [2] (dose 0.01152 ppm, mean of Exp 1-3); 12.90% in the assay on Phakopsora pachyrhizi [2] (dose 0.0576 ppm, mean of Exp 1-3); 13.31% in the assay on Phakopsora pachyrhizi [2] (dose 0.288 ppm, mean of Exp 1-3); 16.42% in the assay with Phakopsora pachyrhizi [2] (dose 1.44 ppm, mean of Exp 1-3). Moreover, the “% of efficiency, Mean” value in the assay with Phakopsora pachyrhizi [2] (dose 7.2 ppm, mean of Exp 1-3) was 16.74%. For the same compound, the “% of efficiency” value in the assay with Phakopsora pachyrhizi [2] (dose 0.0576 ppm, single experiments Exp 1-3) is 10.9% and 12.4% and 15.5%; with Phakopsora pachyrhizi [2] (dose 0.288 ppm, single experiments Exp 1-3), 15.4% and 9.9% and 14.6%. In the assay with Phakopsora pachyrhizi [2] (value in brackets, 'in 2018'), the “EC50 (in 2018)” value is “(88.916 ppm in 2018)”.

Take `OC(Cc1ccccc1Cl)(Cn1cncn1)C1(Cl)CC1` (stereo not shown) [Desthio-prothiconazole, Desthio-prothioconazole]: the Efficacy % in the assay on Phakopsora pachyrhizi [2] (Desthio-prothioconazole dose 0.004544 ppm) came out at 38.49%; in the assay on Phakopsora pachyrhizi [2] (Desthio-prothioconazole dose 0.02272 ppm), 49.44%.

On to `Cn1cc(C(=O)Nc2ccccc2-c2cc(F)c(F)c(F)c2)c(C(F)F)n1` [Technical Fluxapyroxad, Fluxapyroxad], for which the figures for the Efficacy % in the assay with Phakopsora pachyrhizi [2] (Fluxapyroxad dose 0.000576 ppm) and in the assay on Phakopsora pachyrhizi [2] (Fluxapyroxad dose 0.00288 ppm) were 15.24% and 24.72%, respectively. For the same compound, in the assay with Phakopsora pachyrhizi [2] (mean of Exp 1-3), the “EC50 (Mean)” value is reported as <>0.202 ppm. For the same compound, the EC50 in the assay with Phakopsora pachyrhizi [2] (single experiments Exp 1-3) is <>0.190 ppm and <>0.214 ppm and <>0.202 ppm. The “% of efficiency, Mean” value in the assay with Phakopsora pachyrhizi [2] (dose 0.0001152 ppm, mean of Exp 1-3) is reported as 19.26%; with Phakopsora pachyrhizi [2] (dose 0.000576 ppm, mean of Exp 1-3) it was 15.24%; in the assay with Phakopsora pachyrhizi [2] (dose 0.00288 ppm, mean of Exp 1-3) it was 24.72%; in the assay with Phakopsora pachyrhizi [2] (dose 0.0144 ppm, mean of Exp 1-3), 18.40%; in the assay on Phakopsora pachyrhizi [2] (dose 0.072 ppm, mean of Exp 1-3), 29.12%; in the assay on Phakopsora pachyrhizi [2] (dose 0.36 ppm, mean of Exp 1-3), 59.74%. Also, the “% of efficiency, Mean” value in the assay with Phakopsora pachyrhizi [2] (dose 1.8 ppm, mean of Exp 1-3) came out at 80.82%. For the same compound, the “% of efficiency” value was 18.6% and 37.0% in the assay on Phakopsora pachyrhizi [2] (dose 0.00288 ppm, single experiments Exp 1-3); 28.8% and 28.6% and 29.9% in the assay with Phakopsora pachyrhizi [2] (dose 0.072 ppm, single experiments Exp 1-3); 61.7% and 52.3% and 65.2% in the assay with Phakopsora pachyrhizi [2] (dose 0.36 ppm, single experiments Exp 1-3); 88.5% and 83.4% and 70.6% with Phakopsora pachyrhizi [2] (dose 1.8 ppm, single experiments Exp 1-3).

Turning to Mancozeb [Formulated Mancozeb], the Efficacy % stood at 33.27% in the assay on Phakopsora pachyrhizi [2] (Mancozeb dose 0.0128 ppm) and 50.68% with Phakopsora pachyrhizi [2] (Mancozeb dose 0.064 ppm). Moreover, the “EC50 (Mean)” value with Phakopsora pachyrhizi [2] (mean of Exp 1-3) is <>0.042 ppm. Besides, in the assay with Phakopsora pachyrhizi [2] (single experiments Exp 1-3), the EC50 was <>0.037 ppm and <>0.058 ppm and <>0.032 ppm. For the same compound, the “% of efficiency, Mean” value in the assay with Phakopsora pachyrhizi [2] (dose 0.00256 ppm, mean of experiments) is listed as 11.22%; with Phakopsora pachyrhizi [2] (dose 0.0128 ppm, mean of experiments), 33.27%; in the assay with Phakopsora pachyrhizi [2] (dose 0.064 ppm, mean of experiments), 50.88%; in the assay with Phakopsora pachyrhizi [2] (dose 0.32 ppm, mean of experiments), 88.10%; in the assay with Phakopsora pachyrhizi [2] (dose 1.6 ppm, mean of experiments), 95.20%; in the assay with Phakopsora pachyrhizi [2] (dose 8 ppm, mean of experiments), 94.99%. For the same compound, in the assay on Phakopsora pachyrhizi [2] (dose 40 ppm, mean of experiments), the “% of efficiency, Mean” value stood at 96.58%. Besides, the “% of efficiency” value is 39.9% and 26.2% and 33.7% with Phakopsora pachyrhizi [2] (dose 0.0128 ppm, single experiments); 59.2% and 43.2% and 49.7% in the assay on Phakopsora pachyrhizi [2] (dose 0.064 ppm, single experiments); 80.8% and 94.2% and 89.3% with Phakopsora pachyrhizi [2] (dose 0.32 ppm, single experiments); 93.6% and 98.7% and 93.2% with Phakopsora pachyrhizi [2] (dose 1.6 ppm, single experiments); 89.4% and 98.9% and 96.6% in the assay on Phakopsora pachyrhizi [2] (dose 8 ppm, single experiments); 92.3% and 99.5% and 97.8% in the assay on Phakopsora pachyrhizi [2] (dose 40 ppm, single experiments).
